Results: PMC8387461, “T cell receptor recognition of hybrid insulin peptides bound to HLA-DQ8” (Nature Communications, 2021)

System: CD4+ T cell clone A5.5
Test: T cell stimulation assay, IFNγ ELISA, clone A5.5
Assay type: cell-based, human
Details: primary clone A5.5, APC EBV-KJ, 24 h
Protocol: Fig. 2 Comparison of the stimulatory capacity of full-length proinsulin C-peptide and HIP on T1D CD4 + T cell clones. […] Titration of full-length 31-mer C-peptide ([…], (open circles) and 15mer C-peptide-IAPP2 HIP ([…] (filled circles). Antigen presenting cells (APC) were the EBV line, EBV-KJ, (2 × 10^4 cells/well). APC were cultured for 24 h with the same number (2 × 10^4 cells/well) of the primary CD4 + T-cell clone and the peptide concentration indicated. T-cell response to peptide were indicated by secretion of IFNγ which was measured in triplicate by ELISA and reported as pg/ml. Mean and standard deviations of triplicate IFNγ measurements are shown. Results are representative of two experiments for each clone.
For primary T1D CD4+ T cell clones, cells were thawed and used directly in functional assays. For T cell stimulation assays, cloned CD4+ T cells were incubated with BLCL KJ (; HLA-DQ8 + : HLA-DQA1*03:01, HLA-DQB1*03:02), as APCs, together with synthetic peptides. For the alanine scan experiments, each peptide was added to a final concentration of 10 μM. T cell response to antigen was measured as interferon gamma (IFNγ) secretion into the culture media. The IFNγ concentration in the culture media was determined by ELISA (Biolegend).
Supplementary Figure 8. […]
type) at each position P-3 to P12 are shown. IFNγ was measured in triplicate by ELISA, concentrations are shown in pg/ml. […]

GQVELGGGNAVEVLK [HIP]
sensitivity to HIP versus native proinsulin C-peptide: ten times more sensitive to the HIP peptide than native proinsulin C-peptide
